Earlier results, collected in patent US20020058290A1, “Cell lines and cell-based assays for identification of androgen receptor modulators” (priority 2000, published 2002).

System: MAP kinases Erk-1 and Erk-2
Conditions: AR-transfected PC3 cells; AR dependent, similar to DHT

CC(O)(CS(=O)(=O)c1ccc(F)cc1)C(=O)Nc1ccc(C#N)c(C(F)(F)F)c1 (centres unmarked) [Casodex]
activation of MAP kinases Erk-1 and Erk-2: activate MAP kinases Erk-1 and Erk-2 in an AR dependent fashion

CC(C)(O)C(=O)Nc1ccc([N+](=O)[O-])c(C(F)(F)F)c1 [Hydroxyflutamide]
activation of MAP kinases Erk-1 and Erk-2: activate MAP kinases Erk-1 and Erk-2 in an AR dependent fashion
